These results are taken from patent publication US6391848B1, “Soybean protein nutraceuticals” (The Regents of the University of California, priority 1999, dated 2002).

In test [1] the test system is carcinogen-treated cultured cells. The settings on record: in vitro or in vivo; cited from earlier work.
Test [2] relates to C3H 10T1/2 mouse fibroblast cells. Briefly: in vitro transformation assay of C3H 10T1/2 cells with carcinogens MCA and DMBA. Type of test: cell-based.
In test [3] the test system is mammalian cells. Briefly: internalization of lunasin into the cell. In kind it is cell-based. An excerpt: (§1) The lunasin polypeptide also contains a functional RGD (arg-gly-asp) motif.
Chromatin Modification and Tumor Suppression. […] (DePinho,1998; Brehm et al, 1998; Magnaghi-Jaulin, 1998; Pazin and Kadonaga, 1997; Hassig et al, 1997; Laherty et al, 1997). For instance, the retinoblastoma protein Rb is complexed with E2F (a family of transcription factors controlled by Rb) and HDAC1 (the major mammalian histone deacetylase which modulates chromatin structure) in mammalian cells. Rb represses E2F-regulated promoter by recruiting HDAC1 which deacetylates core histones causing a tighter association between DNA and nucleosomes, thus impairing the binding of transcription factors to recognition elements in DNA. The Rb/HDAC/E2F complex could be the target for transforming viruses leading to the release of suppression and a fully transformed state. […] Consequently, gene expression is more or less permanently repressed.

A further test concerns hypoacetylated chromatin. Briefly: binding of lunasin to chromatin in cells. In kind it is cell-based.
Source text: as §1

For test [4], the system named is mammalian cells. Briefly: effect on mitosis and kinetochore assembly of mammalian cells. In kind it is cell-based.
Source text: as §1

The next test deals with cell membrane integrins. Briefly: binding to cell membrane integrins in mammalian cell cultures. The settings on record: exogenously applied; through the RGD tripeptide. Type of test: cell-based.
Source text: as §1

The subject of a further test is carcinogenesis. Briefly: inhibition of carcinogenesis in in vitro and animal models. The following applies: comparable dosages and routes of administration; cell and animal studies. An excerpt: Exemplary lunasin-del compounds include (again using N→C nomenclature convention) shown to be effective at inhibiting carcinogenesis in in vitro and animal models include:
BBI is an 8 kDa protein that is known to dimerize in solution.

On to `CC1=C(/C=C/C(C)=C/C=C/C(C)=C/C=C/C=C(C)/C=C/C=C(C)/C=C/C2=C(C)CCCC2(C)C)C(C)(C)CCC1` [b-carotene], for which the “effect on carcinogenesis after administration of the agent is stopped” value in test [1] is recorded as “reversible effect”.

In the case of lunasin, the “concentration of exogenously applied peptide (as low as) that inhibits transformation into tumorous foci” value in test [2] (carcinogens MCA and DMBA, range 10 nM to 10 mM) was found to be 10 nM. Moreover, the “prevention of carcinogen-induced tumor formation compared with BBIC” value in test [2] (equimolar amounts) was “more effective than BBIC”. Further, the “inhibition of carcinogen-mediated transformation of fibroblast cells into tumorous foci” value in test [2] (exogenous application, carcinogens MCA and DMBA) is given as “inhibits the transformation”. In addition, in the test with mammalian cells [3], the “internalization in the cell” value is “gets internalized in the cell via the RGD motif”. For the same compound, the binding to chromatin entry with hypoacetylated chromatin (exogenously applied to mammalian cell cultures, lunasin that gets into the nucleus) is given as “sufficient to effectively bind regions of hypoacetylated chromatin”; in the test with hypoacetylated chromatin (lunasin gene transfected and expressed inside the cell), “preferentially binds to hypoacetylated chromatin”. Moreover, in the test on mammalian cells [4] (exogenously applied, internalized lunasin, cells undergo normal mitosis), the “effect on kinetochore assembly” value is reported as “appears not to affect kinetochore assembly”. Moreover, in the test with mammalian cells [4] (when expressed in mammalian cells), the effect on mitosis result is “antimitotic effect”. Further, the “binding to cell membrane integrins” value in the test on cell membrane integrins is “binds to cell membrane integrins”. For the same compound, the “efficacy when substituted for BBI” value in the test on carcinogenesis is “provides efficacy”.

For vitamin E, the “effect on carcinogenesis after administration of the agent is stopped” value in test [1] was “reversible effect”.
